Experimental findings from patent publication US10369145B2, “Coumarin derivatives and methods of use in treating hyperproliferative diseases” (DISCOVERYBIOMED, INC., priority 2013, dated 2019) are described below.

Bounds are passed on as bounds.

The GI50 is the concentration giving 50% growth inhibition. A higher GI50 goes with less potent growth inhibition. By CC50 is commonly meant the concentration that lowers cell viability or growth by half. Low values mean greater toxicity to the cells, high ones lower toxicity to the cells. A word on the TGI: it is the concentration at which net growth stops. Read a high TGI as less potent growth arrest.

The subject of series [1] is hyperproliferative PKD cells (cloned polycystic kidney tissue cells). The series is described as follows: Concentration-response in primary cultures cloned from cystic kidney tissue. Format: cell-based. The following applies: 72 hour treatment; for IC50 / Max inhibition: hyperproliferative PKD cells. The procedure:
(§1) The concentration-response effects of Compound DBM 228, Compound DBM 308, Compound DBM 101, and Compound DBM 328 were determined in primary cultures derived as ‘clones’ from cystic versus non-cystic kidney tissue. CRC graphs, IC50 values, and the percent maximum inhibition versus lowest doses without effect were calculated with GraphPad Prism software. […] There was also a marked separation in effect between hyperproliferative PKD cells (FIG. 5A and Table 3) and WT cells (FIG. 5B and Table 4).

Series [2] has as its system WT cells (cloned non-cystic kidney tissue cells). The series is described as follows: Concentration-response in primary cultures cloned from non-cystic kidney tissue. The following applies: 72 hour treatment. Format: cell-based. How it is done: as §1
Series [3] has as its system human cystic ADPKD and non-cystic renal epithelial cells. Briefly: Proliferating versus confluent cystic ADPKD and normal renal cells. Format: cell-based. The procedure: The compounds described herein are effective for inhibiting cellular proliferation in hyperproliferative cell types. To study the effects of these compounds, an assay was developed to differentiate the effects of the compounds on proliferating versus confluent cells. The assay design generates a proliferating density 24 hours after seeding and provides a 3-day active cell growth/doubling window in which to gauge the anti-proliferative effect of the compounds described herein. […] In this 3-day growth window, cell number increases with daily doublings across the 72-hour period (see FIG. 1).
In each assay design, compounds were added at the 24-hour timepoint after cell seeding. The effect of the compounds, relative to vehicle control and to VelCade (a proteasome inhibitor approved in the U.S. for treating relapsed multiple myeloma and mantle cell lymphoma) as a positive control, was assessed across the 3-day growth window for proliferating cells and on an already near confluent culture of cells for the same time period. […]
Cell number at the end of the assay was determined using the CELLTITER-GLO Luminescent Cell Viability Assay (Promega; Madison, Wis.). The CELLTITER-GLO Luminescent Cell Viability Assay is a homogeneous method of determining the number of viable cells in culture based on quantitation of the ATP present, an indicator of metabolically active cells. […]

Series [4] relates to NCI/ADR-RES. The following applies: for potency in multi-drug resistant line, in words (FIG. 9): NCI-ADR/RES versus drug-responsive cells. The source says:
TGI means the drug concentration resulting in total growth inhibition or “cytostasis.” LC50 is the concentration of drug resulting in a 50% reduction in the measured cytosolic ATP at the end of the drug treatment as compared to that at the beginning, indicating a net loss of cells following treatment (cytotoxicity).
A major limitation with the anti-mitotic drugs in particular and in conventional chemotherapeutics in general, is their susceptibility to cellular mechanisms of adaptive/intrinsic multi-drug resistance (i.e., MDR efflux pumps such as p-glycoprotein, MRP1).

For series [5], the system named is NCI-60 cell panel. Briefly: NCI-60 cell panel, whole panel. Format: cell-based, human. The following applies: average in the NCI-60 cell panel.
Series [6] relates to myeloma cells. It is filed as cell-based. The following applies: for GI50 / TGI / efficacy and potency (FIG. 4): myeloma cells; for GI50 / TGI: 48 h drug exposure. How it is done:
For a typical screening experiment to identify the compounds, cells were seeded into 96- or 384-well microtiter plates at plating densities pre-determined for each cell line to ensure drug exposure occurs during the proliferative phase well before confluency is reached. After seeding, cells were incubated for 24 h prior to addition of experimental drugs. After 24 h, a test plate was assayed (CellTiterGlo—measurement of cytosolic ATP) to determine a baseline measurement of the cell population for each cell line at the time of drug addition. Experimental drugs were then added and cells were cultured for a 48 h drug exposure window. […] Values were calculated for each of these three parameters if the level of activity was reached; however, if the effect was not reached or was exceeded, the value for that parameter was expressed as greater or less than the maximum or minimum concentration tested.

Series [7] has as its system tubulin. Briefly: Biochemical tubulin polymerization. The following applies: FIG. 11C. How it is done:
Following 24 hours of treatment with Compound DBM 228, Compound DBM 318, and Compound DBM 328, caspase 3/7 activation in U251MG cells was determined. The detection of caspase 3/7 activation in U251MG cells indicates activation of apoptosis. Tubulin polymerization was determined for Compounds DBM 227, DBM 228, DBM 308, DBM 318, DBM 701, DBM 707, DBM 715, paclitaxel, vincristine, and negative control Compound DBM 328. […] Paclitaxel served as polymerization enhancer control and vincristine served as polymerization inhibitor control.

The subject of series [8] is primary human glioblastoma multiforme (GBM) cells. The series is described as follows: Neurosphere growth of primary human GBM cells. The following applies: GBM cells grown in vitro on 3D neurospheres. It is filed as cell-based. An excerpt:
Data are expressed as mean±SEM and represent at least two independent experiments with sample replicates.

Series [9] has as its system primary human idiopathic pulmonary fibrosis (IPF) myofibroblasts. Briefly: Growth of primary human IPF myofibroblasts in vitro. It is filed as cell-based. The following applies: CRC.

In series [1], `COc1ccccc1Nc1nc(-c2cc3cccc(OC)c3oc2=O)cs1` [Compound DBM 101] displayed an IC50 of 7200 nM and a Max inhibition of 77%. Moreover, in series [2], the IC50 was over 100000 nM and the Max inhibition turned out to be 48%. Besides, the “effect, in words” value in [3] (confluent diseased cells and proliferating and confluent normal cells) is “only partially affected and at mid-micromolar doses”. Further, the “cytostatic effects, in words” value in series [3] (proliferating cystic ADPKD cells) was “selective for hyperproliferative ‘diseased’ cells at potent nanomolar doses”.
With `COc1ccccc1Nc1nc(-c2cc3cccc([N+](=O)[O-])c3oc2=O)cs1` [Compound DBM 227], the IC50 in series [4] (read-out: potency in the NCI-ADR/RES cell line, multi-drug resistant NCI-ADR/RES) was 100 nM. For the same compound, the GI50 in [5] amounted to 250 nM. In series [6], the half-maximal cytotoxic concentration (CC50) is over 4000 nM, the GI50 was determined as 137 nM and the TGI was determined as 404 nM. In series [7], the “effect on biochemical tubulin polymerization, in words” value is recorded as “modestly inhibited”.
For the compound `COc1ccccc1Nc1nc(-c2cc3cccc(Cl)c3oc2=O)cs1` [Compound DBM 308], in series [6], the CC50 is over 4000 nM; the “efficacy and potency (FIG. 4)” value was “significant efficacy and potency”; growth was halved (GI50) at 166 nM; the TGI came to 247 nM. Also, in series [1], the “cytostatic effect, in words” value is “potent and effective analog”; the IC50 stood at 540 nM; the Max inhibition was determined as 84%. Besides, in series [2], the IC50 is over 100000 nM and the Max inhibition was 52%. Besides, in [8], the “concentration giving equivalent cytotoxic effect” value worked out at 3 µM; the “cytostatic effect, in words” value was “cytostatic effect at nanomolar doses”; the “effect on neurosphere growth, in words” value was “dose-dependent growth arrest to cytotoxic effect”. Besides, in [7], the “effect on biochemical tubulin polymerization, in words” value is listed as “modestly inhibited”.
As for `COc1ccccc1Nc1nc(-c2cc3cccc(Br)c3oc2=O)cs1` [Compound DBM 318], in [6], the CC50 was determined as 226 nM; the “efficacy and potency (FIG. 4)” value is “significant efficacy and potency”; it took 133 nM to inhibit growth by half (GI50); the TGI stood at 164 nM. Further, the “effect on biochemical tubulin polymerization, in words” value in series [7] is reported as “modestly inhibited”.
Regarding `COc1ccccc1Nc1nc(-c2cc3cccc(C(=O)O)c3oc2=O)cs1` [Compound DBM 328], in series [6], the CC50 was over 4000 nM, growth was halved (GI50) at 2110 nM and the TGI was >4,000 nM. In series [1], this compound returned an IC50 of 78000 nM and a Max inhibition of 48%. For the same compound, in series [2], the IC50 was over 100000 nM and the Max inhibition was 28%. Besides, the “anti-proliferative effect, in words” value in [9] is listed as “without effect throughout the CRC”. In addition, the “effect on biochemical tubulin polymerization, in words” value in series [7] is recorded as “also inhibited microtubule polymerization”.
Regarding `COc1ccccc1Nc1nc(-c2cc3cccc(C)c3oc2=O)cs1` [Compound DBM 707], in series [6], the CC50 is 544 nM; the “efficacy and potency (FIG. 4)” value was “significant efficacy and potency”; it took 131 nM to inhibit growth by half (GI50); the TGI was 183 nM. The “effect on biochemical tubulin polymerization, in words” value in series [7] is on record as “modestly inhibited”.
On to `COc1ccccc1Nc1nc(-c2cc3ccc(N)c([N+](=O)[O-])c3oc2=O)cs1` [Compound DBM 715], for which the “efficacy and potency (FIG. 4)” value in [6] is “significant efficacy and potency”. In addition, the “effect on biochemical tubulin polymerization, in words” value in series [7] was “modestly inhibited”.
Regarding `Cn1nnc2c(C(N)=O)ncn2c1=O` [TMZ, temozolomide, reference compound], in [8], the “concentration giving equivalent cytotoxic effect” value turned out to be 500 µM.
Regarding `CC(=O)O[C@H]1C(=O)[C@@]2(C)[C@H]([C@H](OC(=O)c3ccccc3)[C@]3(O)C[C@H](OC(=O)[C@H](O)[C@@H](NC(=O)c4ccccc4)c4ccccc4)C(C)=C1C3(C)C)[C@]1(OC(C)=O)CO[C@@H]1C[C@@H]2O` [paclitaxel, reference compound], in series [4], the “potency in multi-drug resistant line, in words (FIG. 9)” value is listed as “significantly right-shifted”.
Turning to `CC[C@]1(O)C[C@H]2CN(CCc3c([nH]c4ccccc34)[C@@](C(=O)OC)(c3cc4c(cc3OC)N(C=O)[C@H]3[C@@](O)(C(=O)OC)[C@H](OC(C)=O)[C@]5(CC)C=CCN6CC[C@]43[C@@H]65)C2)C1` [vincristine, reference compound], in [4], the “potency in multi-drug resistant line, in words (FIG. 9)” value was “significantly right-shifted”.
